What was measured:
PC-12 [1] = assay: Neuroprotective activity against MPP+-induced rat PC12 cell death assessed as upregulation of Ppial4d gene expression at 1 to 10 uM preincubated for 1 hr followed by MPP+ addition and measured after 24 hrs by RNA sequencing analysis relative to control; type: functional; conditions: dose 1-10 µM; time 25 hrs
PC-12 [2] = assay: Neuroprotective activity against MPP+-induced rat PC12 cell death assessed as downregulation of Cdk6 gene expression at 1 to 10 uM preincubated for 1 hr followed by MPP+ addition and measured after 24 hrs by RNA sequencing analysis relative to control; type: functional; conditions: dose 1-10 µM; time 25 hrs
PC-12 [3] = assay: Neuroprotective activity against MPP+-induced rat PC12 cell death assessed as upregulation of Ets1 gene expression at 1 to 10 uM preincubated for 1 hr followed by MPP+ addition and measured after 24 hrs by RNA sequencing analysis relative to control; type: functional; conditions: dose 1-10 µM; time 25 hrs
PC-12 [4] = assay: Neuroprotective activity against MPP+-induced rat PC12 cell death assessed as upregulation of Rps27a gene expression at 1 to 10 uM preincubated for 1 hr followed by MPP+ addition and measured after 24 hrs by RNA sequencing analysis relative to control; type: functional; conditions: dose 1-10 µM; time 25 hrs
PC-12 [5] = assay: Neuroprotective activity against MPP+-induced rat PC12 cell death assessed as downregulation of Cflar gene expression at 1 to 10 uM preincubated for 1 hr followed by MPP+ addition and measured after 24 hrs by RNA sequencing analysis relative to control; type: functional; conditions: dose 1-10 µM; time 25 hrs
PC-12 [6] = assay: Neuroprotective activity against MPP+-induced rat PC12 cell death assessed as downregulation of Tnfaip8L2 gene expression at 1 to 10 uM preincubated for 1 hr followed by MPP+ addition and measured after 24 hrs by RNA sequencing analysis relative to control; type: functional; conditions: dose 1-10 µM; time 25 hrs
PC-12 [7] = assay: Neuroprotective activity against MPP+-induced rat PC12 cell death assessed as upregulation of Lck gene expression at 1 to 10 uM preincubated for 1 hr followed by MPP+ addition and measured after 24 hrs by RNA sequencing analysis relative to control; type: functional; conditions: dose 1-10 µM; time 25 hrs
PC-12 [8] = assay: Neuroprotective activity against MPP+-induced rat PC12 cell death assessed as downregulation of Ren gene expression at 1 to 10 uM preincubated for 1 hr followed by MPP+ addition and measured after 24 hrs by RNA sequencing analysis relative to control; type: functional; conditions: dose 1-10 µM; time 25 hrs
PC-12 [9] = assay: Neuroprotective activity against MPP+-induced rat PC12 cell death assessed as increase in cell viability preincubated for 1 hr followed by MPP+ addition and measured after 24 hrs by CCK-8 assay; type: functional, cell-based; conditions: dose 1-20 µM, time 25.0 hrs
PC-12 [10] = assay: Neuroprotective activity against MPP+-induced rat PC12 cell death assessed as upregulation of Tnr gene expression at 1 to 10 uM preincubated for 1 hr followed by MPP+ addition and measured after 24 hrs by RNA sequencing analysis relative to control; type: functional; conditions: dose 1-10 µM; time 25 hrs
PC-12 [11] = assay: Neuroprotective activity against MPP+-induced rat PC12 cell death assessed as downregulation of Dmpk gene expression at 1 to 10 uM preincubated for 1 hr followed by MPP+ addition and measured after 24 hrs by RNA sequencing analysis relative to control; type: functional; conditions: dose 1-10 µM; time 25 hrs
PC-12 [12] = assay: Neuroprotective activity against MPP+-induced rat PC12 cell death assessed as upregulation of Bach2 gene expression at 1 to 10 uM preincubated for 1 hr followed by MPP+ addition and measured after 24 hrs by RNA sequencing analysis relative to control; type: functional; conditions: dose 1-10 µM; time 25 hrs
PC-12 [13] = assay: Neuroprotective activity against MPP+-induced rat PC12 cell death assessed as downregulation of Adora1 gene expression at 1 to 10 uM preincubated for 1 hr followed by MPP+ addition and measured after 24 hrs by RNA sequencing analysis relative to control; type: functional; conditions: dose 1-10 µM; time 25 hrs
PC-12 [14] = assay: Neuroprotective activity against MPP+-induced rat PC12 cell death assessed as upregulation of Dars2 gene expression at 1 to 10 uM preincubated for 1 hr followed by MPP+ addition and measured after 24 hrs by RNA sequencing analysis relative to control; type: functional; conditions: dose 1-10 µM; time 25 hrs
PC-12 [15] = assay: Neuroprotective activity against MPP+-induced rat PC12 cell death assessed as downregulation of Cntf gene expression at 1 to 10 uM preincubated for 1 hr followed by MPP+ addition and measured after 24 hrs by RNA sequencing analysis relative to control; type: functional; conditions: dose 1-10 µM; time 25 hrs
PC-12 [16] = assay: Neuroprotective activity against MPP+-induced rat PC12 cell death assessed as downregulation of Sesn2 gene expression at 1 to 10 uM preincubated for 1 hr followed by MPP+ addition and measured after 24 hrs by RNA sequencing analysis relative to control; type: functional; conditions: dose 1-10 µM; time 25 hrs
PC-12 [17] = assay: Neuroprotective activity against MPP+-induced rat PC12 cell death assessed as upregulation of Cebpd gene expression at 1 to 10 uM preincubated for 1 hr followed by MPP+ addition and measured after 24 hrs by RNA sequencing analysis relative to control; type: functional; conditions: dose 1-10 µM; time 25 hrs
PC-12 [18] = assay: Neuroprotective activity against MPP+-induced rat PC12 cell death assessed as downregulation of Ifitm3 gene expression at 1 to 10 uM preincubated for 1 hr followed by MPP+ addition and measured after 24 hrs by RNA sequencing analysis relative to control; type: functional; conditions: dose 1-10 µM; time 25 hrs
PC-12 [19] = assay: Neuroprotective activity against MPP+-induced rat PC12 cell death assessed as upregulation of Des gene expression at 1 to 10 uM preincubated for 1 hr followed by MPP+ addition and measured after 24 hrs by RNA sequencing analysis relative to control; type: functional; conditions: dose 1-10 µM; time 25 hrs
PC-12 [20] = assay: Neuroprotective activity against MPP+-induced rat PC12 cell death assessed as upregulation of Mmp2 gene expression at 1 to 10 uM preincubated for 1 hr followed by MPP+ addition and measured after 24 hrs by RNA sequencing analysis relative to control; type: functional; conditions: dose 1-10 µM; time 25 hrs
PC-12 [21] = assay: Neuroprotective activity against MPP+-induced rat PC12 cell death assessed as upregulation of Rab5al1 gene expression at 1 to 10 uM preincubated for 1 hr followed by MPP+ addition and measured after 24 hrs by RNA sequencing analysis relative to control; type: functional; conditions: dose 1-10 µM; time 25 hrs
PC-12 [22] = assay: Neuroprotective activity against MPP+-induced rat PC12 cell death assessed as upregulation of Rora gene expression at 1 to 10 uM preincubated for 1 hr followed by MPP+ addition and measured after 24 hrs by RNA sequencing analysis relative to control; type: functional; conditions: dose 1-10 µM; time 25 hrs
PC-12 [23] = assay: Neuroprotective activity against MPP+-induced rat PC12 cell death assessed as downregulation of Unc13d gene expression at 1 to 10 uM preincubated for 1 hr followed by MPP+ addition and measured after 24 hrs by RNA sequencing analysis relative to control; type: functional; conditions: dose 1-10 µM; time 25 hrs
PC-12 [24] = assay: Neuroprotective activity against MPP+-induced rat PC12 cell death assessed as downregulation of Ugt1a3 gene expression at 1 to 10 uM preincubated for 1 hr followed by MPP+ addition and measured after 24 hrs by RNA sequencing analysis relative to control; type: functional; conditions: dose 1-10 µM; time 25 hrs
PC-12 [25] = assay: Neuroprotective activity against MPP+-induced rat PC12 cell death assessed as downregulation of Ikbkg gene expression at 1 to 10 uM preincubated for 1 hr followed by MPP+ addition and measured after 24 hrs by RNA sequencing analysis relative to control; type: functional; conditions: dose 1-10 µM; time 25 hrs
PC-12 [26] = assay: Neuroprotective activity against MPP+-induced rat PC12 cell death assessed as downregulation of Tnfrsf10b gene expression at 1 to 10 uM preincubated for 1 hr followed by MPP+ addition and measured after 24 hrs by RNA sequencing analysis relative to control; type: functional; conditions: dose 1-10 µM; time 25 hrs

In the case of `C=C1CC[C@H]2C(C)(C)[C@@H](O)C[C@@H](O)[C@]2(C)[C@H]1CO`, the log2FC (PC-12 [1]) is reported as >0.4, the log2FC (PC-12 [2]) is reported as >0.4 and the log2FC (PC-12 [3]) is reported as >0.4. The log2FC (PC-12 [4]) was >0.4, the log2FC (PC-12 [5]) was >0.4 and the log2FC (PC-12 [6]) was >0.4. The log2FC (PC-12 [7]) was >0.4, the log2FC (PC-12 [8]) was >0.4 and the Activity (PC-12 [9]) was “Dose-Dependent Effect”. For the same compound, the log2FC (PC-12 [10]) was >0.4, the log2FC (PC-12 [11]) was >0.4 and the log2FC (PC-12 [12]) was >0.4. For the same compound, the log2FC (PC-12 [13]) was >0.4, the log2FC (PC-12 [14]) was >0.4 and the log2FC (PC-12 [15]) was >0.4. For the same compound, the log2FC (PC-12 [16]) was >0.4, the log2FC (PC-12 [17]) was >0.4 and the log2FC (PC-12 [18]) was >0.4. The log2FC (PC-12 [19]) was >0.4, the log2FC (PC-12 [20]) was >0.4 and the log2FC (PC-12 [21]) was >0.4. The log2FC (PC-12 [22]) was >0.4, the log2FC (PC-12 [23]) was >0.4 and the log2FC (PC-12 [24]) was >0.4. The log2FC (PC-12 [25]) was >0.4 and the log2FC (PC-12 [26]) was >0.4.
